Measurements taken from paper PMC8401933 (Molecules, 2021).

Assays:
GRK7 = biological target: T1, GRK7 (Homo sapiens, UniProt Q8WTQ7); test: KINOMEscan binding; conditions: read-out: Percent Control
T1 construct: purchased Eurofins DiscoverX KINOMEscan

TRKB = biological target: T2, TRKB (Homo sapiens, UniProt Q16620); test: KINOMEscan binding; conditions: read-out: Percent Control
T2 construct: purchased Eurofins DiscoverX KINOMEscan

STK36 = biological target: T3, STK36 (Homo sapiens, UniProt Q9NRP7); test: KINOMEscan binding; conditions: read-out: Percent Control
T3 construct: purchased Eurofins DiscoverX KINOMEscan

GSK3A = biological target: T4, GSK3A (Homo sapiens, UniProt P49840); test: KINOMEscan binding; conditions: read-out: Percent Control
T4 construct: purchased Eurofins DiscoverX KINOMEscan

LIMK1 = biological target: T5, LIMK1 (Homo sapiens, UniProt P53667); test: KINOMEscan binding; conditions: read-out: Percent Control
T5 construct: purchased Eurofins DiscoverX KINOMEscan

MAP4K3 = biological target: T6, MAP4K3 (Homo sapiens, UniProt Q8IVH8); test: KINOMEscan binding; conditions: read-out: Percent Control
T6 construct: purchased Eurofins DiscoverX KINOMEscan

CDK4-cyclinD3 = biological target: T7, CDK4-cyclinD3 (Homo sapiens, UniProt P11802); test: KINOMEscan binding; conditions: read-out: Percent Control
T7 construct: purchased Eurofins DiscoverX KINOMEscan

PRKR = biological target: T8, PRKR (Homo sapiens, UniProt P19525); test: KINOMEscan binding; conditions: read-out: Percent Control
T8 construct: purchased Eurofins DiscoverX KINOMEscan
T8 sequence (P19525 whole entry): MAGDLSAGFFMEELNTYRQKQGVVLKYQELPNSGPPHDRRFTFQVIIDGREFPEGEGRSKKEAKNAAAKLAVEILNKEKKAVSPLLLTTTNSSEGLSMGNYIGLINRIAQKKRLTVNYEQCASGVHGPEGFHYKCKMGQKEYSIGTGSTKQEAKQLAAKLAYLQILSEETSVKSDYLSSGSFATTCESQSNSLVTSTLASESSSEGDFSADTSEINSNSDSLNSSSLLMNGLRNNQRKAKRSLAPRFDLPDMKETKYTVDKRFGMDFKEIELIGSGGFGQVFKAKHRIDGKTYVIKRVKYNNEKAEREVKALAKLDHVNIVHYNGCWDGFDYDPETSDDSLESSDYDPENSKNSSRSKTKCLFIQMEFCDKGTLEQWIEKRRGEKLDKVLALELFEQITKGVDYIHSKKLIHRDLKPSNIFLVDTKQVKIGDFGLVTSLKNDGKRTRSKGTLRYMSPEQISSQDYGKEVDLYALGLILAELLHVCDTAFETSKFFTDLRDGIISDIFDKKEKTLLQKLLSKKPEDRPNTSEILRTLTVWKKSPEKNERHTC

HIPK1 = biological target: T9, HIPK1 (Homo sapiens, UniProt Q86Z02); test: KINOMEscan binding; conditions: read-out: Percent Control
T9 construct: purchased Eurofins DiscoverX KINOMEscan

[1] = biological target: T10, ABL1(Q252H)-nonphosphorylated (Homo sapiens, UniProt P00519, Q252H); test: KINOMEscan binding; conditions: read-out: Percent Control
T10 construct: purchased Eurofins DiscoverX KINOMEscan

EPHA1 = biological target: T11, EPHA1 (Homo sapiens, UniProt P21709); test: KINOMEscan binding; conditions: read-out: Percent Control
T11 construct: purchased Eurofins DiscoverX KINOMEscan
T11 sequence (P21709 26-976): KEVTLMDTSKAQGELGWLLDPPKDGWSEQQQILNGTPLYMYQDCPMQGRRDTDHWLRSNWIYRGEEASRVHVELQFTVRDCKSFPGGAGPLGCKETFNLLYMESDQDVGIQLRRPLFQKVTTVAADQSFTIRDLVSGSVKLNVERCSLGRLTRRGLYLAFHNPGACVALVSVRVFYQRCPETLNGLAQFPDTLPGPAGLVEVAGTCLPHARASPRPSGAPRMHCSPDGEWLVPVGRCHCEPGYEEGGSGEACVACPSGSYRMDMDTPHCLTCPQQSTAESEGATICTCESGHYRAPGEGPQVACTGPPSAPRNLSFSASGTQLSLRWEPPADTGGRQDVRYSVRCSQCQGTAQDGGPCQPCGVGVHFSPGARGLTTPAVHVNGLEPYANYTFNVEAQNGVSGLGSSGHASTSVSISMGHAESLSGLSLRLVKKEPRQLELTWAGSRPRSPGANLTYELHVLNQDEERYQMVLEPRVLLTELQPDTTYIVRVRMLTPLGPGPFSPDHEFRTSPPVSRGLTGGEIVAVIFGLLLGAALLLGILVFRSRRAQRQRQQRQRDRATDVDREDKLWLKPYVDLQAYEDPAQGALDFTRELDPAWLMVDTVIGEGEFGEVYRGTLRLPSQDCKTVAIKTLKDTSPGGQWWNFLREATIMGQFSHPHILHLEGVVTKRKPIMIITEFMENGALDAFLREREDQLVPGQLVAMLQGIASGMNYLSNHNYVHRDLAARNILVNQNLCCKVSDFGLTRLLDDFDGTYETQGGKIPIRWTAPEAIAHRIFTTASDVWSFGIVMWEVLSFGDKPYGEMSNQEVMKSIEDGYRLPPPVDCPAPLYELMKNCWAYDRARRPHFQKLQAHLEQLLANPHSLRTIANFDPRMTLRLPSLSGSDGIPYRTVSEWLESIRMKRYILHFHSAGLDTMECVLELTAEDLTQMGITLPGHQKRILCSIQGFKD

AURKA = biological target: T12, AURKA (Homo sapiens, UniProt O14965); test: KINOMEscan binding; conditions: read-out: Percent Control
T12 construct: purchased Eurofins DiscoverX KINOMEscan

CLK3 = biological target: T13, CLK3 (Homo sapiens, UniProt P49761); test: KINOMEscan binding; conditions: read-out: Percent Control
T13 construct: purchased Eurofins DiscoverX KINOMEscan

NEK2 = biological target: T14, NEK2 (Homo sapiens, UniProt P51955); test: KINOMEscan binding; conditions: read-out: Percent Control
T14 construct: purchased Eurofins DiscoverX KINOMEscan

IRAK1 = biological target: T15, IRAK1 (Homo sapiens, UniProt P51617); test: KINOMEscan binding; conditions: read-out: Percent Control
T15 construct: purchased Eurofins DiscoverX KINOMEscan

[2] = biological target: T16, RSK3(Kin.Dom.2-C-terminal) (Homo sapiens, UniProt Q15349); test: KINOMEscan binding; conditions: read-out: Percent Control
T16 construct: RSK3(Kin.Dom.2-C-terminal); purchased Eurofins DiscoverX KINOMEscan

ABL1-phosphorylated = biological target: T17, ABL1-phosphorylated (Homo sapiens, UniProt P00519); test: KINOMEscan binding; conditions: read-out: Percent Control
T17 construct: purchased Eurofins DiscoverX KINOMEscan

CSF1R = biological target: T18, CSF1R (Homo sapiens, UniProt P07333); test: KINOMEscan binding; conditions: read-out: Percent Control
T18 construct: purchased Eurofins DiscoverX KINOMEscan

[3] = biological target: T19, ABL1(F317L)-nonphosphorylated (Homo sapiens, UniProt P00519, F317L); test: KINOMEscan binding; conditions: read-out: Percent Control
T19 construct: purchased Eurofins DiscoverX KINOMEscan

NEK7 = biological target: T20, NEK7 (Homo sapiens, UniProt Q8TDX7); test: KINOMEscan binding; conditions: read-out: Percent Control
T20 construct: purchased Eurofins DiscoverX KINOMEscan

FGR = biological target: T21, FGR (Homo sapiens, UniProt P09769); test: KINOMEscan binding; conditions: read-out: Percent Control
T21 construct: purchased Eurofins DiscoverX KINOMEscan

CLK1 = biological target: T22, CLK1 (Homo sapiens, UniProt P49759); test: KINOMEscan binding; conditions: read-out: Percent Control
T22 construct: purchased Eurofins DiscoverX KINOMEscan
T22 sequence (P49759 whole entry): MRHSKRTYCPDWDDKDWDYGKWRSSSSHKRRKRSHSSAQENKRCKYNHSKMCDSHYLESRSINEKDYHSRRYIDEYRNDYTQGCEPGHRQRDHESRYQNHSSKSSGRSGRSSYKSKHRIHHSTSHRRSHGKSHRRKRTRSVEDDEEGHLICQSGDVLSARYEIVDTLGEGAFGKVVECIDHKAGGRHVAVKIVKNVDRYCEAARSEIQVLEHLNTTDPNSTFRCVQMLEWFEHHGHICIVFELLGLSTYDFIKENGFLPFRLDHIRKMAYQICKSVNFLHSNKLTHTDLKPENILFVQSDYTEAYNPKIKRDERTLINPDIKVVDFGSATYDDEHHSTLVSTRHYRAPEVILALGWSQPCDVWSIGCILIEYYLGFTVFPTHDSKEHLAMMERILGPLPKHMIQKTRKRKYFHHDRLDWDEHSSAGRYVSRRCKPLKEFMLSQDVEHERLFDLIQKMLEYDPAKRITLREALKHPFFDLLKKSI

EPHA2 = biological target: T23, EPHA2 (Homo sapiens, UniProt P29317); test: KINOMEscan binding; conditions: read-out: Percent Control
T23 construct: purchased Eurofins DiscoverX KINOMEscan

FRK = biological target: T24, FRK (Homo sapiens, UniProt P42685); test: KINOMEscan binding; conditions: read-out: Percent Control
T24 construct: purchased Eurofins DiscoverX KINOMEscan

EPHA4 = biological target: T25, EPHA4 (Homo sapiens, UniProt P54764); test: KINOMEscan binding; conditions: read-out: Percent Control
T25 construct: purchased Eurofins DiscoverX KINOMEscan

PHKG1 = biological target: T26, PHKG1 (Homo sapiens, UniProt Q16816); test: KINOMEscan binding; conditions: read-out: Percent Control
T26 construct: purchased Eurofins DiscoverX KINOMEscan

EPHA8 = biological target: T27, EPHA8 (Homo sapiens, UniProt P29322); test: KINOMEscan binding; conditions: read-out: Percent Control
T27 construct: purchased Eurofins DiscoverX KINOMEscan

PRKD2 = biological target: T28, PRKD2 (Homo sapiens, UniProt Q9BZL6); test: KINOMEscan binding; conditions: read-out: Percent Control
T28 construct: purchased Eurofins DiscoverX KINOMEscan

MEK5 = biological target: T29, MEK5 (Homo sapiens, UniProt Q13163); test: KINOMEscan binding; conditions: read-out: Percent Control
T29 construct: purchased Eurofins DiscoverX KINOMEscan

SIK2 = biological target: T30, SIK2 (Homo sapiens, UniProt Q9H0K1); test: KINOMEscan binding; conditions: read-out: Percent Control
T30 construct: purchased Eurofins DiscoverX KINOMEscan
T30 sequence (Q9H0K1 whole entry): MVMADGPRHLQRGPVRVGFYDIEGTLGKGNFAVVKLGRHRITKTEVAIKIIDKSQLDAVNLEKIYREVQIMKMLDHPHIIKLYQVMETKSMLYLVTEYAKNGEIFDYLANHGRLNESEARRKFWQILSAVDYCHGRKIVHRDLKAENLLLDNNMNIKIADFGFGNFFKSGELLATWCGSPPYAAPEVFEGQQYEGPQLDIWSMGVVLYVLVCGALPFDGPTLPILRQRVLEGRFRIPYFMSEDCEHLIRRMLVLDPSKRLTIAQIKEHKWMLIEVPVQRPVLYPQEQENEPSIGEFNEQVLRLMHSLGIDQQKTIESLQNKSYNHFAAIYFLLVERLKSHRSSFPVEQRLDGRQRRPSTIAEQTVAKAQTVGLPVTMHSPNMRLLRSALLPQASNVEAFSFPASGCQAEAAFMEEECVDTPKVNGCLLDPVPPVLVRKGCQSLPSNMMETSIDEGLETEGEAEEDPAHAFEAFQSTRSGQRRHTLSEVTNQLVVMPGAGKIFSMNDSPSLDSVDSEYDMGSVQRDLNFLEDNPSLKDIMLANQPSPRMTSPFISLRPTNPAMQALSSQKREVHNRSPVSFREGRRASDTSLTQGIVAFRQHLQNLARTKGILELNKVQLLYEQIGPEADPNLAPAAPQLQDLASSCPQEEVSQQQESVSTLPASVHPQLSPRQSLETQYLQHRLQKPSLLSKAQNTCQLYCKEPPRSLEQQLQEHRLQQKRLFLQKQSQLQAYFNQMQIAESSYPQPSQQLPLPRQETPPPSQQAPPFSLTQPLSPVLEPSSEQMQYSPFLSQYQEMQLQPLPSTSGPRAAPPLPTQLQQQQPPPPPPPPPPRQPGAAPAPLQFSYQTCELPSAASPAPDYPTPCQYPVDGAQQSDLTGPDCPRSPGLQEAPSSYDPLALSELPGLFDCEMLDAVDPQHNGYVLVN

ERBB2 = biological target: T31, ERBB2 (Homo sapiens, UniProt P04626); test: KINOMEscan binding; conditions: read-out: Percent Control
T31 construct: purchased Eurofins DiscoverX KINOMEscan

FER = biological target: T32, FER (Homo sapiens, UniProt P16591); test: KINOMEscan binding; conditions: read-out: Percent Control
T32 construct: purchased Eurofins DiscoverX KINOMEscan

RIPK4 = biological target: T33, RIPK4 (Homo sapiens, UniProt P57078); test: KINOMEscan binding; conditions: read-out: Percent Control
T33 construct: purchased Eurofins DiscoverX KINOMEscan

PCTK2 = biological target: T34, PCTK2 (Homo sapiens, UniProt Q00537); test: KINOMEscan binding; conditions: read-out: Percent Control
T34 construct: purchased Eurofins DiscoverX KINOMEscan

MAP3K4 = biological target: T35, MAP3K4 (Homo sapiens, UniProt Q9Y6R4); test: KINOMEscan binding; conditions: read-out: Percent Control
T35 construct: purchased Eurofins DiscoverX KINOMEscan
T35 sequence (Q9Y6R4 whole entry): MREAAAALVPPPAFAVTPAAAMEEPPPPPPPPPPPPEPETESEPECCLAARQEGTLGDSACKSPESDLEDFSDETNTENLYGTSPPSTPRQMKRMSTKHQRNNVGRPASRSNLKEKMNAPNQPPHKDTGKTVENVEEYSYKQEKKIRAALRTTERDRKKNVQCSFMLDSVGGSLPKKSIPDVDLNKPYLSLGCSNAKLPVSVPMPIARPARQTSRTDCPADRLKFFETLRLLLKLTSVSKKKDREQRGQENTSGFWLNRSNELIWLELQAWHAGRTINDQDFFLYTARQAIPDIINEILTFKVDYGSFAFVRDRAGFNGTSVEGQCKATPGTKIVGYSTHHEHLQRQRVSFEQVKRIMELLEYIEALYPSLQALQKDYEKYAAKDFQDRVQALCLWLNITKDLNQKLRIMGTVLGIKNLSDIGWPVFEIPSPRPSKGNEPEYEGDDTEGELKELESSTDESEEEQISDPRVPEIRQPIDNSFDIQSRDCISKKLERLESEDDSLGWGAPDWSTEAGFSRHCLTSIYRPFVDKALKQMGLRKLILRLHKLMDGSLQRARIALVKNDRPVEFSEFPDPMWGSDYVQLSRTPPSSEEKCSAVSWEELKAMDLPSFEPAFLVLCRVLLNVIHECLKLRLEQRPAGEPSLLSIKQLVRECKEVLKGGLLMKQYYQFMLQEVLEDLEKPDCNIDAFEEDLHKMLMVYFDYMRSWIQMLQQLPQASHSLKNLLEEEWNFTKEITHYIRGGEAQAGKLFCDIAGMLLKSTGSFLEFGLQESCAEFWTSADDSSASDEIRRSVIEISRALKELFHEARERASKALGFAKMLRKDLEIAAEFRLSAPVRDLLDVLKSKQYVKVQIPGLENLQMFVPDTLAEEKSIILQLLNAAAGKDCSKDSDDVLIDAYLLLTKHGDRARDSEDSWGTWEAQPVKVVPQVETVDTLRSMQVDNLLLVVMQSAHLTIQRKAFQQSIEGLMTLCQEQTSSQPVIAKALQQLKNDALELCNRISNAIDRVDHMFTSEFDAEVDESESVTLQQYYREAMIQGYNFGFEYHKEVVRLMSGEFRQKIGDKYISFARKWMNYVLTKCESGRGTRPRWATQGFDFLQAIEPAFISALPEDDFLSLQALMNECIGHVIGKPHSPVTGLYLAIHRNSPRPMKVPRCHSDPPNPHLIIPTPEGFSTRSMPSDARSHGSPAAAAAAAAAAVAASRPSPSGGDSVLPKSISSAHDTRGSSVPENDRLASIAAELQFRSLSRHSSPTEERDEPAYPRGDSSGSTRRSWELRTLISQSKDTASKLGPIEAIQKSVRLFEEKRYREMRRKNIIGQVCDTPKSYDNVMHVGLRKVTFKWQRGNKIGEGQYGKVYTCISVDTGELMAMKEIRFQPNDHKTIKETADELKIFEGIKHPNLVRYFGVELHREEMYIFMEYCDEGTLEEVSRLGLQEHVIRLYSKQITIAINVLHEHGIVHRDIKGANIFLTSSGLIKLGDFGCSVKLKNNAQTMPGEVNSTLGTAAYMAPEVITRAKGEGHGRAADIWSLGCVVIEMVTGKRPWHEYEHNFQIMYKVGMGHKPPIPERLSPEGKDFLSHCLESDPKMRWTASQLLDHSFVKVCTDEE

ACVR1B = biological target: T36, ACVR1B (Homo sapiens, UniProt P36896); test: KINOMEscan binding; conditions: read-out: Percent Control
T36 construct: purchased Eurofins DiscoverX KINOMEscan

ROCK2 = system: ROCK2; parameters: method as in PMID 18832915; conditions: cited from earlier work
PIKFYVE = biological target: T37, PIKFYVE (Homo sapiens, UniProt Q9Y2I7); test: KINOMEscan binding; conditions: read-out: Percent Control
T37 construct: purchased Eurofins DiscoverX KINOMEscan

CAMK1G = biological target: T38, CAMK1G (Homo sapiens, UniProt Q96NX5); test: KINOMEscan binding; conditions: read-out: Percent Control
T38 construct: purchased Eurofins DiscoverX KINOMEscan

MEK1 = biological target: T39, MEK1 (Homo sapiens, UniProt Q02750); test: KINOMEscan binding; conditions: read-out: Percent Control
T39 construct: purchased Eurofins DiscoverX KINOMEscan

RET(V804L) = biological target: T40, RET(V804L) (Homo sapiens, UniProt P07949, V804L); test: KINOMEscan binding; conditions: read-out: Percent Control
T40 construct: purchased Eurofins DiscoverX KINOMEscan

PIM1 = biological target: T41, PIM1 (Homo sapiens, UniProt P11309); test: KINOMEscan binding; conditions: read-out: Percent Control
T41 construct: purchased Eurofins DiscoverX KINOMEscan

SGK2 = biological target: T42, SGK2 (Homo sapiens, UniProt Q9HBY8); test: KINOMEscan binding; conditions: read-out: Percent Control
T42 construct: purchased Eurofins DiscoverX KINOMEscan
T42 sequence (Q9HBY8 whole entry): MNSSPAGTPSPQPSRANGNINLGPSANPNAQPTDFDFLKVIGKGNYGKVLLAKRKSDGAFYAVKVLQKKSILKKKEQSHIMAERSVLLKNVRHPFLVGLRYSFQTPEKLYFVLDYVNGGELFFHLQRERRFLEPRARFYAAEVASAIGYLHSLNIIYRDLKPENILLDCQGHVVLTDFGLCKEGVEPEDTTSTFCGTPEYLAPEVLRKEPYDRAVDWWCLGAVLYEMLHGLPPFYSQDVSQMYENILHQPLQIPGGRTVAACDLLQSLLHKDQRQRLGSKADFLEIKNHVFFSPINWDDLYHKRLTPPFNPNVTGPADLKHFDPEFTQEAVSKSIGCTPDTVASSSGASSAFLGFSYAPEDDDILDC

NEK6 = biological target: T43, NEK6 (Homo sapiens, UniProt Q9HC98); test: KINOMEscan binding; conditions: read-out: Percent Control
T43 construct: purchased Eurofins DiscoverX KINOMEscan

## CC(C)NC(=O)COc1cccc(-c2nc(Nc3ccc4[nH]ncc4c3)c3ccccc3n2)c1 [KD025, 2-(3-(4-((1H-indazol-5-yl)amino)quinazolin-2-yl)phenoxy)-N-isopropylacetamide]
GRK7
  remaining binding at 10 µM: 80%
TRKB
  remaining binding at 10 µM: 98%
STK36
  remaining binding at 10 µM: 91%
GSK3A
  remaining binding at 10 µM: 100%
LIMK1
  remaining binding at 10 µM: 92%
MAP4K3
  remaining binding at 10 µM: 78%
CDK4-cyclinD3
  remaining binding at 10 µM: 53%
PRKR
  remaining binding at 10 µM: 54%
HIPK1
  remaining binding at 10 µM: 58%
[1]
  remaining binding at 10 µM: 85%
EPHA1
  remaining binding at 10 µM: 88%
AURKA
  remaining binding at 10 µM: 75%
CLK3
  remaining binding at 10 µM: 68%
NEK2
  remaining binding at 10 µM: 83%
IRAK1
  remaining binding at 10 µM: 100%
[2]
  remaining binding at 10 µM: 89%
ABL1-phosphorylated
  remaining binding at 10 µM: 73%
CSF1R
  remaining binding at 10 µM: 99%
[3]
  remaining binding at 10 µM: 96%
NEK7
  remaining binding at 10 µM: 91%
FGR
  remaining binding at 10 µM: 82%
CLK1
  remaining binding at 10 µM: 57%
EPHA2
  remaining binding at 10 µM: 59%
FRK
  remaining binding at 10 µM: 78%
EPHA4
  remaining binding at 10 µM: 93%
PHKG1
  remaining binding at 10 µM: 87%
EPHA8
  remaining binding at 10 µM: 88%
PRKD2
  remaining binding at 10 µM: 100%
MEK5
  remaining binding at 10 µM: 63%
SIK2
  remaining binding at 10 µM: 74%
ERBB2
  remaining binding at 10 µM: 81%
FER
  remaining binding at 10 µM: 75%
RIPK4
  remaining binding at 10 µM: 100%
PCTK2
  remaining binding at 10 µM: 94%
MAP3K4
  remaining binding at 10 µM: 83%
ACVR1B
  remaining binding at 10 µM: 91%
ROCK2
  IC50: […]
PIKFYVE
  remaining binding at 10 µM: 12%
CAMK1G
  remaining binding at 10 µM: 88%
MEK1
  remaining binding at 10 µM: 72%
RET(V804L)
  remaining binding at 10 µM: 67%
PIM1
  remaining binding at 10 µM: 100%
SGK2
  remaining binding at 10 µM: 100%
NEK6
  remaining binding at 10 µM: 80%
